Measured values: ChEMBL document CHEMBL1152083, “Structure-activity studies of nonmacrocyclic rapamycin derivatives” (Bioorg Med Chem Lett, 1993)
The source made the active and inactive calls. The calls are words filed in the database; no cut-off is given here.

How the values were obtained:
Mus musculus [1] = species on record: Mus musculus; assay: In vitro immunosuppressive activity by splenocyte mitogenesis assay in spleen cells from BDF1 female mice at 1 pM to 10 uM concentration; not active; type: functional, cell-based
[2] = Binding affinity for FK506 binding protein; details: read-out: Ki app
[3] = Binding affinity for FK506 binding protein; value ranges from 2-6 nM; details: read-out: Ki app
Mus musculus [4] = species on record: Mus musculus; assay: In vitro immunosuppressive activity by splenocyte mitogenesis assay in spleen cells from BDF1 female mice at 1 pM to 10 uM concentration; type: functional, cell-based

Ki [2]	Ki [3]	IC50 (Mus musculus [4])	SMILES	Activity (Mus musculus [1])
51 nM			COCC(=O)[C@H](C)C[C@H](C)\C=C/C=C/C=C(\C)[C@H](C[C@@H]1CC[C@@H](C)[C@](O)(C(=O)C(=O)N2CCCC[C@H]2C(=O)OC(C)C)O1)OC	inactive
41 nM			COCC(=O)[C@H](C)C[C@H](C)\C=C/C=C/C=C(\C)[C@H](C[C@@H]1CC[C@@H](C)[C@](O)(C(=O)C(=O)N2CCCC[C@H]2C(=O)OC(C)c2ccccc2)O1)OC (stereo partly drawn)	inactive
	2 nM		CO[C@@H](C[C@@H]1CC[C@@H](C)[C@](O)(C(=O)C(=O)N2CCCC[C@H]2C(=O)OCc2ccccc2)O1)/C(C)=C/C=C/C=C\[C@@H](C)C[C@@H](C)C(=O)[C@H](OC)[C@H](O)/C(C)=C/[C@@H](C)C(=O)/C=C/[C@H](C)C[C@@H]1CC[C@@H](O)[C@H](OC)C1	inactive
500 nM			COCC(=O)[C@H](C)C[C@H](C)\C=C/C=C/C=C(\C)[C@H](C[C@@H]1CC[C@@H](C)[C@](O)(C(=O)C(=O)N2CCCC[C@H]2C(=O)O)O1)OC	inactive
20 nM			CCC(C)(C)C(=O)C(=O)N1CCCC[C@H]1C(=O)O[C@@H](CC(=O)[C@H](C)/C=C(\C)[C@@H](O)[C@@H](OC)C(=O)[C@H](C)C[C@H](C)\C=C/C=C/C=C(\C)[C@H](C[C@@H]1CC[C@@H](C)C(=O)O1)OC)[C@H](C)C[C@@H]1CC[C@@H](O)[C@H](OC)C1	inactive
12 nM			COCC(=O)[C@H](C)C[C@H](C)\C=C/C=C/C=C(\C)[C@H](C[C@@H]1CC[C@@H](C)[C@](O)(C(=O)C(=O)N2CCCC[C@H]2C(=O)OC)O1)OC	inactive
15 nM			COCC(=O)[C@H](C)C[C@H](C)\C=C/C=C/C=C(\C)[C@H](C[C@@H]1CC[C@@H](C)[C@](O)(C(=O)C(=O)N2CCCC[C@H]2C(=O)OCc2ccccc2)O1)OC	inactive
0.5 nM		1 nM	CO[C@H]1C[C@@H]2CC[C@@H](C)[C@@](O)(O2)C(=O)C(=O)N2CCCC[C@H]2C(=O)O[C@H]([C@H](C)C[C@@H]2CC[C@@H](O)[C@H](OC)C2)CC(=O)[C@H](C)/C=C(\C)[C@@H](O)[C@@H](OC)C(=O)[C@H](C)C[C@H](C)/C=C/C=C/C=C/1C [SIROLIMUS]	
31 nM			COCC(=O)[C@H](C)C[C@H](C)\C=C/C=C/C=C(\C)[C@H](C[C@@H]1CC[C@@H](C)[C@](O)(C(=O)C(=O)N2CCCC[C@H]2C(=O)OC/C=C/c2ccccc2)O1)OC	inactive
32 nM			COCC(=O)[C@H](C)C[C@H](C)\C=C/C=C/C=C(\C)[C@H](C[C@@H]1CC[C@@H](C)[C@](O)(C(=O)C(=O)N2CCCC[C@H]2C(=O)NCCCc2ccccc2)O1)OC	inactive
4 nM			COCC(=O)[C@H](C)C[C@H](C)\C=C/C=C/C=C(\C)[C@H](C[C@@H]1CC[C@@H](C)[C@](O)(C(=O)C(=O)N2CCCC[C@H]2C(=O)O[C@@H](CC(=O)[C@H](C)/C=C(\C)C=O)[C@H](C)C[C@@H]2CC[C@@H](O)[C@H](OC)C2)O1)OC	inactive
110 nM			COCC(=O)[C@H](C)C[C@H](C)\C=C/C=C/C=C(\C)[C@H](C[C@@H]1CC[C@@H](C)[C@](O)(C(=O)C(=O)N2CCCC[C@H]2C(=O)NCc2ccccc2)O1)OC	inactive
29 nM			COC(=O)[C@@H]1CCCCN1C(=O)C(=O)[C@]1(O)O[C@H](C[C@H](OC)/C(C)=C/C=C/C=C\[C@@H](C)C[C@@H](C)C(=O)[C@H](OC)[C@H](O)/C(C)=C/[C@@H](C)C(=O)/C=C/[C@H](C)C[C@@H]2CC[C@@H](O)[C@H](OC)C2)CC[C@H]1C	inactive
43 nM			COCC(=O)[C@H](C)C[C@H](C)\C=C/C=C/C=C(\C)[C@H](C[C@@H]1CC[C@@H](C)[C@](O)(C(=O)C(=O)N2CCCC[C@H]2C(=O)OCCCc2ccc(OC)c(OC)c2)O1)OC	inactive
